The text below walks through data of patent US12187709B2 (Genentech, Inc., priority 2021, dated 2025).

The Kd is the concentration at which binding is half-saturated. Low values mean higher affinity, high ones lower affinity. For orientation: IC50 means the concentration needed to halve the response being measured. Lower therefore signals greater potency in that assay.

The target of assay [1] is c-Cbl (residues 47-435) (Homo sapiens (Human), UniProt P22681). In words: c-Cbl SPR assay. It is filed as binding. Particulars: 20° C. The gist of the method: (§1)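 Binding is measured by surface plasmon resonance against both isoforms, with double referencing and 1:1 kinetic fitting. Dissociation time is tuned to 4-5 half-lives.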
Sequence of c-Cbl (residues 47-435) (P22681 47-435): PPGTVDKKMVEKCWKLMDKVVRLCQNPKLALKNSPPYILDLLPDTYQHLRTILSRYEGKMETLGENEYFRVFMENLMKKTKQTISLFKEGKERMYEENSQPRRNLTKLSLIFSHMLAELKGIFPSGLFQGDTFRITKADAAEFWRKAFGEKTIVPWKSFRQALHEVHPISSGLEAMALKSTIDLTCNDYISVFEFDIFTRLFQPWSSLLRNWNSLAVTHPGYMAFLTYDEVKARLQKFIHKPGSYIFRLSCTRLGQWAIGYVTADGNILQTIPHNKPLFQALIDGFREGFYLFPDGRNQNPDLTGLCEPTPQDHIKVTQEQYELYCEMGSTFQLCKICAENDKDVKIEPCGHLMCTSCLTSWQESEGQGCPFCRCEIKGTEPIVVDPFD
On the technique in general: Surface plasmon resonance follows binding to a sensor surface in real time, without labels.

For assay [2], the target named is Cbl-b (Homo sapiens (Human), UniProt Q13191). In words: Cbl-b LCK Ub TR-FRET assay (Cbl-b Lck HTRF). It is filed as biochemical. The conditions noted are these: for IC50: Cbl-b LCK Ub TR-FRET, Example 121; for (fold-selectivity) Cbl-b and C-Cbl Selectivity: ratio C-cbl Lck HTRF IC50 / Cbl-b Lck HTRF IC50. In a few lines: (§2)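 Detection reagents added, brief spin, 20 min RT. IC50 fit normalized to no-LCK (low) and DMSO (high) controls.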
Sequence of Cbl-b (Q13191 40-426): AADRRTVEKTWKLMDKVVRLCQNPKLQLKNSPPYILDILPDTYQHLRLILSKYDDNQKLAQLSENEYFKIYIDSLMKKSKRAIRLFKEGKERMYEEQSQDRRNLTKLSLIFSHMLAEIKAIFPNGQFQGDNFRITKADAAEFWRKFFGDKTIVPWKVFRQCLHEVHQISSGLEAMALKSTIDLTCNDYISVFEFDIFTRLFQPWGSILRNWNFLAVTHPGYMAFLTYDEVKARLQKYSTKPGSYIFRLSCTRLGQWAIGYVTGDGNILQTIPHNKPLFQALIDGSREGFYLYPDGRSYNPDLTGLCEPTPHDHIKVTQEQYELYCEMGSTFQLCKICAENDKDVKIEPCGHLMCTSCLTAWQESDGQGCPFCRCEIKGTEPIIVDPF

The target of assay [3] is Human Cbl-b (residues 40-426) (Homo sapiens (Human), UniProt Q13191). Description: Cbl-b SPR assay. It is filed as binding. Particulars: for Fold of selectivity: C-cbl SPR Kd vs Cbl-b SPR Kd; for Kd: SPR, 20° C. The gist of the method: as §1
Sequence of Human Cbl-b (residues 40-426) (Q13191 40-426): as above
For assay [4], the target named is c-Cbl (Homo sapiens (Human), UniProt P22681). Description: C-Cbl LCK Ub TR-FRET assay (C-cbl Lck HTRF). It is filed as biochemical. In a few lines: as §2
Sequence of c-Cbl (P22681 47-435): as the sequence (P22681 47-435) above
(In general: Time-resolved FRET reads energy transfer from a long-lived donor to a nearby acceptor.)

Molecule `Cn1cnnc1[C@H](c1cccc(N2Cc3c(cc(CNC4(C)CCC4)cc3C(F)F)C2=O)c1)C1CC(F)C1` (stereo partly drawn) [Compound 461, 4-(difluoromethyl)-2-(3-((S)-((1s,3R)-3-fluorocyclobutyl)(4-methyl-4H-1,2,4-triazol-3-yl)methyl)phenyl)-6-(((1-methylcyclobutyl)amino)methyl)isoindolin-1-one] displayed a Kd in assay [1] of 3400 nM. Besides, in assay [2], inhibition was half-maximal at 360 nM (IC50); the “(fold-selectivity) Cbl-b and C-Cbl Selectivity” value worked out at 8.8 x. In assay [3], this molecule displayed a Fold of selectivity of 18× and a Kd of 190 nM. In assay [4], this molecule yielded an IC50 of 3200 nM.

Take `Cn1cnnc1C(c1cccc(N2Cc3c(cc(CNC4(C)CCC4)cc3C(F)(F)F)C2=O)c1)C1(F)CSC1` (stereo not drawn) [Compound 462, 2-(3-((3-fluorothietan-3-yl)(4-methyl-4H-1,2,4-triazol-3-yl)methyl)phenyl)-6-(((1-methylcyclobutyl)amino)methyl)-4-(trifluoromethyl)isoindolin-1-one]: the Kd in assay [1] came to 21 nM. Moreover, in assay [2], the IC50 stood at 13 nM; the “(fold-selectivity) Cbl-b and C-Cbl Selectivity” value is recorded as 1.9x. In assay [3], this molecule showed a Fold of selectivity of 10× and a Kd of 2 nM. The molecule further displayed an IC50 in assay [4] of 24 nM.

In turn, `Cn1cnnc1[C@@H](c1cccc(N2Cc3c(cc(CNCC(C)(C)F)cc3C(F)(F)F)C2=O)c1)C1COC1` [Compound 463, (R)-6-(((2-fluoro-2-methylpropyl)amino)methyl)-2-(3-((4-methyl-4H-1,2,4-triazol-3-yl)(oxetan-3-yl)methyl)phenyl)-4-(trifluoromethyl)isoindolin-1-one] yielded a Kd in assay [1] of 17 nM. In assay [2], the IC50 was 6.5 nM; the “(fold-selectivity) Cbl-b and C-Cbl Selectivity” value was determined as 1.9x. In assay [3], the Fold of selectivity came out at 5.2× and the Kd was found to be 3.2 nM. This molecule also came in with an IC50 in assay [4] of 12 nM.

On to `CO[C@H]1C[C@](c2cccc(N3Cc4c(cc(CN[C@H](C)C5CCC5)cc4C(F)(F)F)C3=O)c2)(c2nncn2C)C1` [Compound 467], for which the Kd in assay [1] was determined as 120 nM; in assay [3] it was 16 nM. Besides, the IC50 in assay [2] is 22 nM; in assay [4] it was 86 nM. Also, in assay [2], the “(fold-selectivity) Cbl-b and C-Cbl Selectivity” value was found to be 4.0x. Further, the Fold of selectivity in assay [3] came out at 7.6×.

In the case of `CO[C@H]1C[C@](c2cccc(N3Cc4c(cc(CN[C@@H](C)C5CCC5)cc4C(F)(F)F)C3=O)c2)(c2nncn2C)C1` [Compound 470, 6-((((S)-1-cyclobutylethyl)amino)methyl)-2-(3-((1r,3S)-3-methoxy-1-(4-methyl-4H-1,2,4-triazol-3-yl)cyclobutyl)phenyl)-4-(trifluoromethyl)isoindolin-1-one], the Kd in assay [1] was 1.5 nM. Moreover, in assay [2], the midpoint of inhibition, the IC50, lay at 4.4 nM; the “(fold-selectivity) Cbl-b and C-Cbl Selectivity” value stood at 1.0x. In addition, in assay [3], the Fold of selectivity was 2.9× and the Kd came to 0.35 nM. Besides, in assay [4], the IC50 turned out to be 4.5 nM.

With `CO[C@H]1C[C@](c2cccc(N3Cc4c(cc(CNC5(C)CC(F)(F)C5)cc4C(F)(F)F)C3=O)c2)(c2nncn2C)C1` [Compound 471, 6-(((3,3-difluoro-1-methylcyclobutyl)amino)methyl)-2-(3-((1r,3r)-3-methoxy-1-(4-methyl-4H-1,2,4-triazol-3-yl)cyclobutyl)phenyl)-4-(trifluoromethyl)isoindolin-1-one], in assay [1], the affinity, expressed as Kd, was 91 nM. In addition, in assay [2], the IC50 was determined as 8.3 nM; the “(fold-selectivity) Cbl-b and C-Cbl Selectivity” value is given as 4.3x. Moreover, in assay [3], the Fold of selectivity is 11× and the affinity, expressed as Kd, was 8.3 nM. In assay [4], this molecule displayed an IC50 of 36 nM.

`CO[C@H]1C[C@](c2cccc(N3Cc4c(cc(CNCC5(O)CC5)cc4C(F)(F)F)C3=O)c2)(c2nncn2C)C1` [Compound 473, 6-((((1-hydroxycyclopropyl)methyl)amino)methyl)-2-(3-((1r,3r)-3-methoxy-1-(4-methyl-4H-1,2,4-triazol-3-yl)cyclobutyl)phenyl)-4-(trifluoromethyl)isoindolin-1-one]: the Kd in assay [1] amounted to 85 nM. In addition, in assay [2], the IC50 was 14 nM; the “(fold-selectivity) Cbl-b and C-Cbl Selectivity” value is reported as 3.6x. In assay [3], this molecule displayed a Fold of selectivity of 11× and a Kd of 7.6 nM. Half-maximal inhibition in assay [4] (IC50) was put at 50 nM.

Regarding `CO[C@H]1C[C@](c2cccc(N3Cc4c(cc(CNCC5(C)CC5)cc4C(F)(F)F)C3=O)c2)(c2nncn2C)C1` [Compound 474, 2-(3-((1r,3r)-3-methoxy-1-(4-methyl-4H-1,2,4-triazol-3-yl)cyclobutyl)phenyl)-6-((((1-methylcyclopropyl)methyl)amino)methyl)-4-(trifluoromethyl)isoindolin-1-one], in assay [1], the Kd stood at 68 nM. In addition, in assay [2], the IC50 is 11 nM; the “(fold-selectivity) Cbl-b and C-Cbl Selectivity” value came to 4.8x. Moreover, in assay [3], the Fold of selectivity was determined as 14× and the Kd is 4.8 nM. In assay [4], this molecule gave an IC50 of 51 nM.

With `CO[C@H]1C[C@](c2cccc(N3Cc4c(cc(CNC5(C)CC5)cc4C(F)(F)F)C3=O)c2)(c2nncn2C)C1` [Compound 475, 2-(3-((1r,3r)-3-methoxy-1-(4-methyl-4H-1,2,4-triazol-3-yl)cyclobutyl)phenyl)-6-(((1-methylcyclopropyl)amino)methyl)-4-(trifluoromethyl)isoindolin-1-one], the Kd in assay [1] came to 45 nM. Further, in assay [2], the IC50 was 8.7 nM; the “(fold-selectivity) Cbl-b and C-Cbl Selectivity” value was determined as 3.3x. In assay [3], the Fold of selectivity is 13× and binding was put at a Kd of 3.6 nM. Further, half-maximal inhibition in assay [4] (IC50) required 23 nM.

As to `CO[C@H]1C[C@](c2cccc(N3Cc4c(cc(CNC5COC5)cc4C(F)(F)F)C3=O)c2)(c2nncn2C)C1` [Compound 476, 2-(3-((1r,3r)-3-methoxy-1-(4-methyl-4H-1,2,4-triazol-3-yl)cyclobutyl)phenyl)-6-((oxetan-3-ylamino)methyl)-4-(trifluoromethyl)isoindolin-1-one], in assay [1], binding was characterised by a dissociation constant (Kd) of 1100 nM. Also, in assay [2], the IC50 came to 82 nM; the “(fold-selectivity) Cbl-b and C-Cbl Selectivity” value was found to be 7.1x. In assay [3], the Fold of selectivity turned out to be 11× and binding was characterised by a dissociation constant (Kd) of 95 nM. In assay [4], this molecule came in with an IC50 of 570 nM.

In assay [1], `CO[C@H]1C[C@](c2cccc(N3Cc4c(cc(CNC5CC5)cc4C(F)(F)F)C3=O)c2)(c2nncn2C)C1` [Compound 477, 6-((cyclopropylamino)methyl)-2-(3-((1r,3r)-3-methoxy-1-(4-methyl-4H-1,2,4-triazol-3-yl)cyclobutyl)phenyl)-4-(trifluoromethyl)isoindolin-1-one] displayed a Kd of 130 nM. For the same molecule, in assay [2], the IC50 was 17 nM; the “(fold-selectivity) Cbl-b and C-Cbl Selectivity” value was 5.6x. In assay [3], this molecule registered a Fold of selectivity of 11× and a Kd of 11 nM. Further, in assay [4], half-maximal inhibition (IC50) required 93 nM.

Consider `CO[C@H]1C[C@](c2cccc(N3Cc4c(cc(CN5CC(C)(O)C5)cc4C(F)(F)F)C3=O)c2)(c2nncn2C)C1` [Compound 478, 6-((3-hydroxy-3-methylazetidin-1-yl)methyl)-2-(3-((1r,3r)-3-methoxy-1-(4-methyl-4H-1,2,4-triazol-3-yl)cyclobutyl)phenyl)-4-(trifluoromethyl)isoindolin-1-one], for which, in assay [1], the Kd is 1100 nM. Moreover, in assay [2], the IC50 was determined as 130 nM; the “(fold-selectivity) Cbl-b and C-Cbl Selectivity” value was determined as 6.4x. In assay [3], this molecule had a Fold of selectivity of 8.7× and a Kd of 120 nM. In addition, the midpoint of inhibition in assay [4], the IC50, lay at 840 nM.

For the molecule `CO[C@H]1C[C@](c2cccc(N3Cc4c(cc(CN5CCC5)cc4C(F)(F)F)C3=O)c2)(c2nncn2C)C1` [Compound 480, 6-(azetidin-1-ylmethyl)-2-(3-((1r,3r)-3-methoxy-1-(4-methyl-4H-1,2,4-triazol-3-yl)cyclobutyl)phenyl)-4-(trifluoromethyl)isoindolin-1-one], the Kd was 490 nM in assay [1] and 45 nM in assay [3]. For the same molecule, the IC50 in assay [2] is 34 nM; in assay [4] it was 280 nM. Also, the “(fold-selectivity) Cbl-b and C-Cbl Selectivity” value in assay [2] was determined as 7.9x. Also, the Fold of selectivity in assay [3] is on record as 11×.

For `CO[C@H]1C[C@](c2cccc(N3Cc4c(cc(CNCC(C)(C)C)cc4C(F)(F)F)C3=O)c2)(c2nncn2C)C1` [Compound 481, 2-(3-((1r,3r)-3-methoxy-1-(4-methyl-4H-1,2,4-triazol-3-yl)cyclobutyl)phenyl)-6-((neopentylamino)methyl)-4-(trifluoromethyl)isoindolin-1-one], in assay [1], binding was characterised by a dissociation constant (Kd) of 27 nM. Further, in assay [2], 6.2 nM corresponded to half-maximal inhibition (IC50); the “(fold-selectivity) Cbl-b and C-Cbl Selectivity” value amounted to 4.0x. In assay [3], the Fold of selectivity worked out at 18× and the Kd turned out to be 1.5 nM. Further, 25 nM corresponded to half-maximal inhibition in assay [4] (IC50).

`CO[C@H]1C[C@](c2cccc(N3Cc4c(cc(CNCC5CC5(F)F)cc4C(F)(F)F)C3=O)c2)(c2nncn2C)C1` (stereo partly drawn) [Compound 482, 6-((((2,2-difluorocyclopropyl)methyl)amino)methyl)-2-(3-((1r,3r)-3-methoxy-1-(4-methyl-4H-1,2,4-triazol-3-yl)cyclobutyl)phenyl)-4-(trifluoromethyl)isoindolin-1-one] registered a Kd in assay [1] of 30 nM. Also, in assay [2], inhibition was half-maximal at 5.3 nM (IC50); the “(fold-selectivity) Cbl-b and C-Cbl Selectivity” value came to 3.7x. Moreover, in assay [3], the Fold of selectivity is on record as 15× and the Kd stood at 1.9 nM. Half-maximal inhibition in assay [4] (IC50) required 20 nM.
